For test [1], the target named is T1, hGPR17L (Homo sapiens, UniProt Q13304). The test is described as follows: cAMP accumulation HTRF assay. A general note: Changes in cAMP serve as a functional read-out for many G protein-coupled receptors.
Test [2] deals with T1, hGPR17L. The test is described as follows: Calcium mobilization assay. Type of test: cell-based. Particulars: for antagonist activity at GPR17: data not shown. For orientation: A change in cytosolic calcium serves as a functional read-out for many receptors and channels.
The target of a further test is FGFR1 (Homo sapiens, UniProt P11362). Description: PathHunter U2OS FGFR1 functional counter assay. Type of test: cell-based. Particulars: dose response.
The next test addresses hGPR17 (Homo sapiens, UniProt Q13304). Description: Cisbio HTRF β-arrestin recruitment assay, Schild analysis. The class given is cell-based. Particulars: Table 1. On the technique in general: In TR-FRET formats the signal depends on donor and acceptor labels being close together.
Another test concerns the target GHSR1a (Homo sapiens, UniProt Q92847). The test is described as follows: PathHunter U2OS GHSR1a β-arrestin counter assay. Particulars: dose response. The class given is cell-based.
The target in test [3] is T1, hGPR17L. The test is described as follows: GLP-1 secretion assay in GLUTag cells expressing hGPR17L. Type of test: cell-based. Particulars: 6.3 μM MDL; for attenuation of MDL-mediated inhibition of GLP-1 secretion: 10 μM compound, 10 μM forskolin and 10 μM IBMX.
Test [4] addresses T1, hGPR17L. Description: cAMP signaling in GLUTag cells expressing hGPR17L. Type of test: cell-based. The note with it: for attenuation of MDL-mediated inhibition of forskolin-stimulated cAMP: 10 μM compound, 100 nM MDL, 10 μM forskolin.
A further test has as its target T2, hCysLTR2 (Homo sapiens, UniProt Q9NS75).
T2 sequence (Q9NS75 1-346): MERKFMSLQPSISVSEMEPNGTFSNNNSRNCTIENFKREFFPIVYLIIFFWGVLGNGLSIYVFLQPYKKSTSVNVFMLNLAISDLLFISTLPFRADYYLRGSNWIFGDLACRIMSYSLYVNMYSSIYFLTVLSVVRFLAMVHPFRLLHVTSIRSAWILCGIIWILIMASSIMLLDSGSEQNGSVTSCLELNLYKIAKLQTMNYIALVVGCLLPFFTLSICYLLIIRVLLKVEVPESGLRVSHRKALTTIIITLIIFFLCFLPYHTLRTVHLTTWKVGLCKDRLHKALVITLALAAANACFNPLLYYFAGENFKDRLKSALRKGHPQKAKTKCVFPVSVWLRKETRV
Description: Calcium mobilization, Neuro-2a cells transiently transfected with hCysLTR2. The class given is cell-based. The note with it: 10 μM compound; 50 nM LTD4.

The next test addresses GPR17 (long isoform) (Homo sapiens, UniProt Q13304). The test is described as follows: PathHunter GPR17 β-arrestin recruitment assay. The note with it: IC50 (antagonist mode), assay development; stimulated with 2 μM MDL (~EC80). Type of test: cell-based.
The test system of another test is GPR17. The note with it: cited from earlier work.
In test [5] the target is N-methyl-D-aspartate (NMDA) receptors, glycine binding site. Particulars: cited from earlier work.
For another test, the target named is hP2RY1 (Homo sapiens, UniProt P47900). Description: Calcium mobilization, Neuro-2a cells transiently transfected with hP2RY1. Type of test: cell-based. The note with it: 10 μM compound (300 μM MRS2179); 8 nM 2MeSADP.
For a further test, the target named is T3, hCysLTR1 (Homo sapiens, UniProt Q9Y271).
T3 sequence (Q9Y271 1-337): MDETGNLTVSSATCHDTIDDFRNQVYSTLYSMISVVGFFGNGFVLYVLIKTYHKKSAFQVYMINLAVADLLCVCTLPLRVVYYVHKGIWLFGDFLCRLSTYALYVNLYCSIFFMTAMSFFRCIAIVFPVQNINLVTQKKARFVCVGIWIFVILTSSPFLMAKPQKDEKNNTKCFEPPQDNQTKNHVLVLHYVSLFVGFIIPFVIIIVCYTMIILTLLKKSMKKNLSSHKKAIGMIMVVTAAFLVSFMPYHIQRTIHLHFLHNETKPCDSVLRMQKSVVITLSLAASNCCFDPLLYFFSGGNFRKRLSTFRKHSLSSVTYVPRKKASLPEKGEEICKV
The test is described as follows: Calcium mobilization, Neuro-2a cells transiently transfected with hCysLTR1. The class given is cell-based. The note with it: 10 μM compound; 50 nM LTD4.

Broadly, the IC50 is the midpoint of a concentration-inhibition curve. By Ki is commonly meant a measure of affinity in units of concentration, obtained from inhibition or displacement. What is called EC50 is the concentration giving half of the maximal effect.

T1 sequence (Q13304 whole entry): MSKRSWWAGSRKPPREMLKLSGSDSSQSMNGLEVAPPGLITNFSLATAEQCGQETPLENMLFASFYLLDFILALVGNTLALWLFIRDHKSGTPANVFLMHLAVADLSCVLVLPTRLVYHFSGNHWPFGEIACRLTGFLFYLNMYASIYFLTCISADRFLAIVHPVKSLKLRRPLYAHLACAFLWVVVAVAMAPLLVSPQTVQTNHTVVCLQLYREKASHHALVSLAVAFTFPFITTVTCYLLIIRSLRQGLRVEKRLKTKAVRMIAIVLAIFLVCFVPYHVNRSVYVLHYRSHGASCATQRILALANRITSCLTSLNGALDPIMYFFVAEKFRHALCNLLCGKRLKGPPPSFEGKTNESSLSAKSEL
Chain of GHSR1a (Q92847 whole entry): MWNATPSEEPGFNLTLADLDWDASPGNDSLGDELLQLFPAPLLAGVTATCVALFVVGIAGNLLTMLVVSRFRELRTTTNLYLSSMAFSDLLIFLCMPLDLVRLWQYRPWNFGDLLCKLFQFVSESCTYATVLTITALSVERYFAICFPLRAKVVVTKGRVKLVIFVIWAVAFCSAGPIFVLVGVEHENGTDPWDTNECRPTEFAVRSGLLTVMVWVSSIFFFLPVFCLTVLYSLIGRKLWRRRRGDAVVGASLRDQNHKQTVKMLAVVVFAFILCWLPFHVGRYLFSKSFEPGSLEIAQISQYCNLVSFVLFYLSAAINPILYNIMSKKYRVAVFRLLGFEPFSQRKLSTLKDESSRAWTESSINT
Chain of hP2RY1 (P47900 whole entry): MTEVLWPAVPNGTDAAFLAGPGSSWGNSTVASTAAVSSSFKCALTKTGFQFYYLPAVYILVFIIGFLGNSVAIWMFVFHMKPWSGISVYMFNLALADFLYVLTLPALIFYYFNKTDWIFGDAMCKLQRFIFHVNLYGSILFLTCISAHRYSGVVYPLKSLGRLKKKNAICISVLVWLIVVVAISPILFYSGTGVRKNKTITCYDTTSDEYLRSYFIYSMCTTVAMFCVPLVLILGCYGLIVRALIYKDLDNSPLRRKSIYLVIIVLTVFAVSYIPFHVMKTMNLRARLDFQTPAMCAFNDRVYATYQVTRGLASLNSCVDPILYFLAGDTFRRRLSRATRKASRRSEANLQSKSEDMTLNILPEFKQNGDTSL
Chain of FGFR1 (P11362 22-822): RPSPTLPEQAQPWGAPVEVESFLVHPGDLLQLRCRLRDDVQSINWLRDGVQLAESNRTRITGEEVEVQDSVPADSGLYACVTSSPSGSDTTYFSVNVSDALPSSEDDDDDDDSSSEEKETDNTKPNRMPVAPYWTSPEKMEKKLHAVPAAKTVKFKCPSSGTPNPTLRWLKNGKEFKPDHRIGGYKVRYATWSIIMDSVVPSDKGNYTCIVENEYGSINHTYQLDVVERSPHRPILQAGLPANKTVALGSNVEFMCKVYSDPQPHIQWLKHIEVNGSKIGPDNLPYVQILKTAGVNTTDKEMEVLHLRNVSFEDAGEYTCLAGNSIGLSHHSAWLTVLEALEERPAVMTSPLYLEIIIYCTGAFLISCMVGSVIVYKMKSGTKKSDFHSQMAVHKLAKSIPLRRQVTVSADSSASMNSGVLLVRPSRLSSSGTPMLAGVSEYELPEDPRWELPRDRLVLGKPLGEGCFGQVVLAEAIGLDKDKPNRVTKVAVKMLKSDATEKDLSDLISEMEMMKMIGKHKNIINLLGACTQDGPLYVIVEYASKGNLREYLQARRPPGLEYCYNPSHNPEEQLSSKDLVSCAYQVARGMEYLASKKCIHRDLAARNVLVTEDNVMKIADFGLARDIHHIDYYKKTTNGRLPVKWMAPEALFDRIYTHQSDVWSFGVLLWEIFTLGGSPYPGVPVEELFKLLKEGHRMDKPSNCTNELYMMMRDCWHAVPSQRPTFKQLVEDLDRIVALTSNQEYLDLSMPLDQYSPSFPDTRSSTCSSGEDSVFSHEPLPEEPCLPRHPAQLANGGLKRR
Chain of hGPR17 (Q13304 whole entry): as the sequence (Q13304 whole entry) above
Chain of GPR17 (long isoform) (Q13304 whole entry, canonical isoform): as the sequence (Q13304 whole entry) above

For `CC(C)[C@@H](O)CC[C@@H](C)[C@H]1CC[C@H]2[C@@H]3CC=C4C[C@@H](O)CC[C@]4(C)[C@H]3CC[C@]12C` [24S-HC, 24(S)-hydroxycholesterol, reference compound], the “activation of GPR17 or potentiation of MDL” value at hGPR17L [1] (cAMP accumulation assay) and at hGPR17L [2] (calcium mobilization assay) was “not able to confirm” in each case.

In the case of `COc1ccc(C(=O)NC2CCCc3c2[nH]c2c(Cl)cccc32)cc1OC` (stereo not drawn) [Compd 1, N-(8-Chloro-2,3,4,9-tetrahydro-1H-carbazol-1-yl)-3,4-dimethoxybenzamide], the “activity in FGFR1 functional counter assay” value at FGFR1 is recorded as “no activity”. Besides, on hGPR17, the “β-arrestin Schild Slope (95% CI)” value was 1.13 (0.96 – 1.30). The “activity in GHSR1a β-arrestin counter assay” value at GHSR1a is “no activity”. Besides, the “attenuation of MDL-mediated inhibition of GLP-1 secretion” value on hGPR17L [3] was “significantly attenuated”. Besides, the “attenuation of MDL-mediated inhibition of forskolin-stimulated cAMP” value at hGPR17L [4] is “significantly attenuated”. The Emax at hGPR17L [2] (1321-N1, read-out: % Efficacy Avg ± SEM) was found to be 109 ± 3.38%. Besides, the IC50 at hGPR17L [2] (Calcium Assay IC50(μM) Avg ± SEM, Table 2, reported only when efficacy ≥75%) was 5.47 ± 0.3 µM.

Take `O=C(O)c1ccc(OCCCc2ccc(OCCCCOC3CCCCC3)cc2)c(C(=O)NC2CCCC(C(=O)O)C2)c1` (stereo not drawn) [HAMI]: the IC50 against hGPR17L [1] (IC50 (antagonist mode), assay development, 30 nM MDL (EC80), 1 μM forskolin) is 1.5 µM; against hGPR17L [1] (IC50, cAMP HTRF assay, purified re-purchased/re-synthesized compounds reassessed) it was 10 µM; against GPR17 (long isoform), 8.2 µM; in the test with GPR17, “single digit micromolar range”; at hGPR17L [2] (IC50 (antagonist mode), assay development, stimulated with […] MDL (~EC80)), 8.1 µM. Besides, the “block of CYSLTR2 activation” value at hCysLTR2 was “antagonized”. Also, the “attenuation of MDL-mediated inhibition of GLP-1 secretion” value at hGPR17L [3] was “significantly attenuated”. Further, the “block of MDL-stimulated receptor activation of GPR17” value in the test with GPR17 is given as “completely”. Besides, the “attenuation of MDL-mediated inhibition of forskolin-stimulated cAMP” value at hGPR17L [4] is recorded as “significantly attenuated”. The “antagonist activity at GPR17” value on hGPR17L [2] (calcium mobilization assay) is “full antagonist activity”.

For `O=C(O)CCc1c(C(=O)O)[nH]c2cc(Cl)cc(Cl)c12` [MDL, 3-(2-carboxyethyl)-4,6-dichloro-1H-indole-2-carboxylic acid], the inhibitory constant (Ki) in test [5] was 0.14 µM. At hGPR17L [1], this compound yielded an EC50 of 0.0019 µM. Besides, at hGPR17L [3], the “forskolin and IBMX-stimulated GLP-1 secretion after GPR17 activation” value is given as 50.1 ± 4.6 pM; the “reduction of forskolin and IBMX-stimulated GLP-1 secretion” value worked out at 33 ± 8%. Further, at hGPR17L [4] (forskolin plus MDL), the “forskolin-stimulated cAMP after GPR17 activation” value is given as 3.5 ± 0.18 nM and the “inhibition of forskolin stimulated cAMP” value was determined as 29 ± 3%. On hGPR17L [2], the concentration giving a half-maximal response (EC50) amounted to 0.28 µM.

As for `CNc1ncnc2c1ncn2[C@H]1C[C@H](OP(=O)(O)O)[C@@H](COP(=O)(O)O)O1` [MRS2179], the “block of P2RY1 activation” value at hP2RY1 was “antagonized”.

Turning to `O=C(Nc1cccc2c(=O)cc(-c3nnn[nH]3)oc12)c1ccc(OCCCCc2ccccc2)cc1` [pranlukast], at hCysLTR1, the “block of CYSLTR1 activation” value is recorded as “antagonized”. Also, the “block of MDL-stimulated receptor activation of GPR17” value with GPR17 is “completely”. Moreover, on hGPR17L [2] (calcium mobilization assay), the “antagonist activity at GPR17” value is “full antagonist activity”.

The values are drawn from publication PMC12459614 (European journal of medicinal chemistry, 2025).
